Residues, ends and D or L forms follow the SMILES beside them. *: point of attachment. Oleoyl = CCCCCCCC/C=C\CCCCCCCC(=O)*
Tests used:
élastase = assay: in vitro acellular anti-elastase test, elastase diffusion in agarose gel containing orcein-stained insoluble elastin; format: biochemical; details: figure 2
Description: La méthode utilisée est une technique in vitro acellulaire, basée sur la diffusion d'élastase dans un gel d'agarose contenant de l'élastine insoluble colorée par l'orcéïne et dispersée dans le gel avec ou sans principe actif. La lecture du diamètre de lyse permet de calculer le pourcentage d'inhibition de l'enzyme par le principe actif.

fibroblastes = assay: Bell-type dermal equivalent, contraction kinetics of fibroblast-seeded collagen lattice; format: cell-based; details: followed over 7 days; 0,005 % oléamide de glycylglycine, 0,003 % acide oléique, 0,002 % gly-gly; figure 3
Description: Pour objectiver cette activité, on utilise le modèle cellulaire de derme équivalent de type Bell. Il permet, grâce à une mise en culture de fibroblastes sur un support de collagène, de reproduire in vitro une structure tissulaire tridimensionnelle et de rendre compte des interactions fibroblaste-matrice, le fibroblaste étant impliqué dans le maintien de la structure dermique.
La capacité des fibroblastes, ensemencés dans un milieu défini avec ou sans actif, à organiser les fibres de collagène les unes par rapport aux autres et de les faire se rétracter, se concrétise par une diminution de surface de ce derme. Ce test traduit la capacité du fibroblaste à modeler, par ce biais, un véritable tissu. On suit donc la cinétique de contraction de ce derme sur 7 jours, cette cinétique étant liée au métabolisme de la cellule.
Les concentrations en actifs employées correspondent à des doses auxquelles ces actifs se sont avérés non cytotoxiques et non prolifératifs.

collagène de type I = assay: in vitro acellular glycation of type I collagen, thiobarbituric acid assay; format: biochemical; details: glucose 250 mM, 37°C, 8 days, figure 1
Procedure: L'activité inhibitrice de la glycylglycine est évaluée et comparée à celle de l'aminoguanidine en utilisant un modèle in vitro, acellulaire, de glycation du collagène de type I, selon le protocole suivant.
L'actif anti-glyquant est introduit dans une solution contenant du glucose 250 mM et du collagène de type I. L'aminoguanidine agit notamment en bloquant le groupement carbonyle du produit d'Amadori, stoppant ainsi la glycation à son stade précoce (M. Brownlee et coll., Science, 1986 (6), 232, 1629-1632).
Le mélange est incubé à 37°C pendant 8 jours puis le glucose non fixé est éliminé par dialyse. Après lyophilisation du collagène, on procède à un dosage à l'acide thiobarbiturique pour déterminer le taux de glycation.
Cette méthode permet le dosage de sucres liés aux cétoamines.
Le lyophilisat, après être pesé, est dissous dans l'acide oxalique 0,5 M. On laisse incuber à 120°C pendant 1 heure, puis à 40°C pendant 45 min après avoir ajouté de l'acide thiobarbiturique à 50 mM.
La densité optique du mélange, lue à 443 nm, est proportionnelle au taux de glycation exprimé en nmoles HMF formé par mg de lyophilisat.

Row | activité anti-élastase (aire de lyse) (élastase) | SMILES | cinétique de rétraction (pourcentage de rétraction) (fibroblastes) | activité anti-glyquante (taux de glycation, nmoles HMF/mg) (collagène de type I; at 100 mM, compared with aminoguanidine) | activité anti-glyquante (taux de glycation, nmoles HMF/mg) (collagène de type I; 1 mM, 10 mM and 100 mM)
1 | activité anti-élastase importante | CCCCCCCC/C=C\CCCCCCCC(=O)NCC(=O)NCC(=O)O [oléamide de glycylglycine] (Oleoyl-Gly-Gly-OH) | plus efficace que l'acide oléique, l'association acide oléique/glycylglycine, la glycylglycine | – | –
2 | – | NCC(=O)NCC(=O)O [glycylglycine] (H-Gly-Gly-OH) | – | activité équivalent à celle de l'aminoguanidine | avec un effet-dose
